Measurements from patent US20150164875A1, “Compound Preparation of Lercanidipine and Atorvastatin” (ZHAOKE PHARMACEUTICAL (GUANGZHOU) COMPANY LIMITED, priority 2012, published 2015).
Counter-ions that a name gives are not always drawn. Like-named read-outs stand apart in the source and are kept apart here.

Legend:
[1] = tested on: rats with spontaneous hypertension (adult MHS rats) fed with high fat diet; experiment: Systolic pressure in rats with spontaneous hypertension accompanied by dyslipidemia (Example 4); assay type: in vivo, rat; details: for systolic pressure: B 0.4 mg/kg, C 0.8 mg/kg, D 0.4 mg/kg+0.8 mg/kg, Mean ± SD
Description: (§1) 5-month-old rats with spontaneous hypertension (adult MHS rats), half males and half females, were fed with high fat diet every day (1.0% of cholesterol, 0.2% of propylthiouracil, 0.5% of sodium cholate, 5.0% of lard, 1.0% of methionine and 92.3% of basal diet) for four weeks; after four weeks, the basal systolic pressure and lipid levels in rats weighing 200-240 g were determined. Rats with hypertension accompanied with dyslipidemia were evenly divided into 4 groups with 12 rates in each group. The four groups were respectively as follows: solvent control group (A), lercanidipine group (lercanidipine hydrochloride, 0.4 mg/kg) (B), atorvastatin group (atorvastatin calcium, 0.8 mg/kg) (C), and lercanidipine/atorvastatin compound group (lercanidipine hydrochloride+atorvastatin calcium, 0.4 mg/kg+0.8 mg/kg) (D). Each group of drugs was formulated with physiological saline, and were administered to rats by gavage once a day for 4 consecutive weeks. Rats were measured 2 hours after administration at the end of each week for the systolic pressure and total serum cholesterol levels and so on.

[2] = tested on: rats with spontaneous hypertension (adult MHS rats) fed with high fat diet; experiment: Total serum cholesterol in rats with spontaneous hypertension accompanied by dyslipidemia (Example 4); assay type: in vivo, rat; details: for total cholesterol: B 0.4 mg/kg, C 0.8 mg/kg, D 0.4 mg/kg+0.8 mg/kg, Mean ± SD; for change in total cholesterol (in words): over 4 weeks of administration, C and D p<0.05, B p>0.05
Description: as §1

[3] = tested on: SD rats with hypertension accompanied by dyslipidemia; experiment: Decrease in systolic pressure in experimental (renal artery clip) rats with hypertension accompanied by dyslipidemia (Example 5); assay type: in vivo, rat; details: for Degree of antihypertension: gavage once a day, 20 weeks, systolic pressure before minus after administration, Mean ± SD; for systolic pressure as compared with the solvent control group (in words): end of week 20, lercanidipine 0.5 mg/kg, atorvastatin 1.0 mg/kg, compound 0.5 mg/kg+0.5/1.0/2.0 mg/kg, positive control 0.5 mg/kg+1.0 mg/kg
Description: SD rats, weighing 150-180 g, were anaesthetized by intraperitoneal injection with chloral hydrate (320 mg/kg). The abdominal cavity was opened, and the left renal artery was separated and was restricted with 0.2 mm silver clip. At 8-10 weeks following the procedure, rats with systolic pressure ≧140 mmHg were recognized as hypertension rats. Rats with hypertension were administered with vitamin D3 by gavage in a total dosage of 600,000 U/kg in three days, and then were fed with high-fat diet every day (cholesterol 1.0%, propylthiouracil 0.2%, sodium cholate 0.5%, lard 5.0%, methionine 1.0%, basal diet 92.3%). Rats in normal control group were fed with normal diet. After four weeks, systolic pressure was measured in rats, serum total cholesterol (TC) and triglyceride (TG) levels were determined by taking blood from tail vein.
(§2) 140 rats with hypertension accompanied by dyslipidemia were evenly divided into 7 groups with 20 rats in each group according to blood pressure and lipid levels, which were respectively solvent control group, lercanidipine group (lercanidipine hydrochloride, 0.5 mg/kg), atorvastatin group (atorvastatin calcium, 1.0 mg/kg), lercanidipine/atorvastatin compound group 1 (lercanidipine hydrochloride+atorvastatin calcium, 0.5 mg/kg+0.5 mg/kg), lercanidipine/atorvastatin compound group 2 (lercanidipine hydrochloride+atorvastatin calcium, 0.5 mg/kg+1.0 mg/kg), lercanidipine/atorvastatin compound group 3 (lercanidipine hydrochloride+atorvastatin calcium, 0.5 mg/kg+2.0 mg/kg), and positive control group (amlodipine besylate+atorvastatin calcium, 0.5 mg/kg+1.0 mg/kg).
(§3) Another 20 normal rats served as normal control group. Rats with hypertension were continued to be fed with the high-fat diet, and rats in normal group were fed with normal diet. Each group of drugs was formulated with physiological saline, and for the normal control group and solvent control group rats, same volume of physiological saline were administered. Rats were administered by gavage once a day for 20 consecutive weeks. Rats were weighed once a week, and the dosage was adjusted based on the weight. Blood pressures in different time points before and after administration were measured respectively to calculate the magnitude of the decrease in blood pressure (systolic pressure before administration−systolic pressure after administration). Rats were sampled 20 weeks later, and the serum total cholesterol (TC) and triglyceride (TG) levels were determined. The corresponding parameters for each group were represented with the mean±standard deviation (Mean±SD), and t-test was used to compare different groups.

[4] = tested on: SD rats with hypertension accompanied by dyslipidemia; experiment: Serum TC and TG in experimental rats with hypertension accompanied by dyslipidemia (Example 5); assay type: in vivo, rat; details: for TC / TG: gavage once a day, serum after 20 weeks, Mean ± SD; for TC and TG as compared with the solvent control group (in words): end of week 20, lercanidipine 0.5 mg/kg, atorvastatin 1.0 mg/kg, compound 0.5 mg/kg+0.5/1.0/2.0 mg/kg, positive control 0.5 mg/kg+1.0 mg/kg
Description: SD rats, weighing 150-180 g, were anaesthetized by intraperitoneal injection with chloral hydrate (320 mg/kg). The abdominal cavity was opened, and the left renal artery was separated and was restricted with 0.2 mm silver clip. […] Rats in normal control group were fed with normal diet. After four weeks, systolic pressure was measured in rats, serum total cholesterol (TC) and triglyceride (TG) levels were determined by taking blood from tail vein.
as §2, §3

[5] = cited from earlier work
[6] = 0 week (basal, before administration)
[7] = 1 week, 2 hours after administration, gavage once a day
[8] = 2 weeks, 2 hours after administration, gavage once a day
[9] = 3 weeks, 2 hours after administration, gavage once a day
[10] = 4 weeks, 2 hours after administration, gavage once a day

Structure (SMILES) | systolic pressure [1, 6] [mmHg] | systolic pressure [1, 7] [mmHg] | systolic pressure [1, 8] [mmHg] | systolic pressure [1, 9] [mmHg] | systolic pressure [1, 10] [mmHg] | total cholesterol [2, 6] [mmol/L] | total cholesterol ([2]; 1 week, gavage once a day) [mmol/L] | total cholesterol ([2]; 2 weeks, gavage once a day) [mmol/L] | total cholesterol ([2]; 3 weeks, gavage once a day) [mmol/L] | total cholesterol ([2]; 4 weeks, gavage once a day) [mmol/L] | change in total cholesterol (in words) [2] | systolic pressure as compared with the solvent control group (in words) [3] | TC and TG as compared with the solvent control group (in words) [4] | further results
COC(=O)C1=C(C)NC(C)=C(C(=O)OC(C)(C)CN(C)CCC(c2ccccc2)c2ccccc2)C1c1cccc([N+](=O)[O-])c1 (stereo not drawn) [Group B, lercanidipine hydrochloride] | 162 ± 4.1 | 158 ± 3.7 | 149 ± 5.1 | 138 ± 3.4 | 135 ± 2.5 | 8.49 ± 3.01 | 7.95 ± 2.48 | 7.55 ± 1.94 | 7.28 ± 1.76 | 7.01 ± 1.77 | decreased | significantly decreased | improved | change in systolic pressure (in words) ([1]; over 4 weeks of administration, p<0.01): decreased to normal blood pressure levels; Degree of antihypertension ([3]; dosage 0.5 mg/kg): 35.8 ± 9.65 mmHg; TC ([4]; dosage 0.5 mg/kg): 8.27 ± 2.96 mmol/L; TG ([4]; dosage 0.5 mg/kg): 2.43 ± 1.21 mmol/L
CC(C)c1c(C(=O)Nc2ccccc2)c(-c2ccccc2)c(-c2ccc(F)cc2)n1CC[C@@H](O)C[C@@H](O)CC(=O)[O-].CC(C)c1c(C(=O)Nc2ccccc2)c(-c2ccccc2)c(-c2ccc(F)cc2)n1CC[C@@H](O)C[C@@H](O)CC(=O)[O-].[Ca+2] [Group C, atorvastatin calcium] | 160 ± 5.3 | 166 ± 2.9 | 161 ± 5.1 | 159 ± 4.2 | 158 ± 3.7 | 8.75 ± 2.65 | 7.51 ± 1.79 | 6.67 ± 2.03 | 6.15 ± 1.47 | 5.72 ± 1.48 | significant | improved | significantly decreased | Degree of antihypertension ([3]; dosage 1.0 mg/kg): 2.4 ± 1.98 mmHg; TC ([4]; dosage 1.0 mg/kg): 5.27 ± 4.03 mmol/L; TG ([4]; dosage 1.0 mg/kg): 1.49 ± 0.74 mmol/L; lipid-lowering effect improved ([5]; comparing with the same dose of lovastatin): 51%; lipid-lowering effect improved ([5]; comparing with the same dose of pravastatin): 46%; lipid-lowering effect improved ([5]; comparing with the same dose of simvastatin): 38%
